Results taken from patent US8658604B2, “Template-fixed beta-hairpin peptidomimetics with protease inhibitory activity” (Polyphor Ltd, priority 2005, dated 2014).
Where two headings read alike, the source gives them in different places. Where a SMILES comes first, the peptide text is derived from it.

Experiments:
HELA cells (Acc57) = experiment: Cytotoxicity assay (MTT reduction), HELA cells; format: cell-based
How it was run: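 HeLa cells were grown for 24 h, then exposed to peptides at 12.5, 25 and 50 μM in triplicate for 48 h at 37 °C. MTT reduction was read at 595 nm and growth % calculated relative to time-zero wells. LC50 interpolated by linear trend at −50% growth, GI50 at 50%.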

[1] = system: human red blood cells (hRBC); experiment: Hemolysis
[2] = molecular target: Trypsin, from human pancreas (Homo sapiens, UniProt P07477); experiment: Enzymatic assay, trypsin; conditions: at 100 μM
Chymase, from human skin = molecular target: T1, Chymase, from human skin (Homo sapiens, UniProt P23946); experiment: Enzymatic assay, chymase
T1 sequence (P23946 22-247): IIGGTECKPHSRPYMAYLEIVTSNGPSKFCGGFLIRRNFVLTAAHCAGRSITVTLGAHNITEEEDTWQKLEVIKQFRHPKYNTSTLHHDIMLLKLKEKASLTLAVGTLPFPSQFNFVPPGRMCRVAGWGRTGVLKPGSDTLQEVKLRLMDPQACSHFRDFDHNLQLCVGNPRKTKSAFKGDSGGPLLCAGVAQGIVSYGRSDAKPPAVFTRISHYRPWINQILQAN

[3] = molecular target: T2, Elastase from human neutrophils (Homo sapiens, UniProt P08246); experiment: Enzymatic assay, elastase
T2 sequence (P08246 30-267): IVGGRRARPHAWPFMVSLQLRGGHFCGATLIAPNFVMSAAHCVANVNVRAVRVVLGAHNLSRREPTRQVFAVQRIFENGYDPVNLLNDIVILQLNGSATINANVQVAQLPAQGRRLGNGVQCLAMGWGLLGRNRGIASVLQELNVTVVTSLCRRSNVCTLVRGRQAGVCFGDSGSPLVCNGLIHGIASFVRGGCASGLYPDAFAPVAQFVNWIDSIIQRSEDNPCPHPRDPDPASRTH

[4] = molecular target: Thrombin, from Human Plasma (Homo sapiens, UniProt P00734); experiment: Enzymatic assay, thrombin
[5] = system: Tryptase, from human lung; experiment: Enzymatic assay, tryptase; conditions: at 100 μM
[6] = molecular target: Urokinase from human urine (Homo sapiens, UniProt P00749); experiment: Enzymatic assay, urokinase
[7] = molecular target: T3, CathepsinG, from human neutrophils (Homo sapiens, UniProt P08311); experiment: Enzymatic assay, cathepsin G
T3 sequence (P08311 21-244): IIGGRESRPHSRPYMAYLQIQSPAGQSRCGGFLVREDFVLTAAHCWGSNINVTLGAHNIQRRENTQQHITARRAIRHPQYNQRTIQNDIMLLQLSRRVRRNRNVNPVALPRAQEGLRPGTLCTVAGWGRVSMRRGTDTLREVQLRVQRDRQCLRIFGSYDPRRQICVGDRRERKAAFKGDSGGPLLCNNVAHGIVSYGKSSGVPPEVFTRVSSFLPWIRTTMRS

[8] = molecular target: Chymotrypsin, from human pancreas (Homo sapiens, UniProt P17538); experiment: Enzymatic assay, chymotrypsin; conditions: at 100 μM
Sequence of Chymotrypsin, from human pancreas (P17538 19-263): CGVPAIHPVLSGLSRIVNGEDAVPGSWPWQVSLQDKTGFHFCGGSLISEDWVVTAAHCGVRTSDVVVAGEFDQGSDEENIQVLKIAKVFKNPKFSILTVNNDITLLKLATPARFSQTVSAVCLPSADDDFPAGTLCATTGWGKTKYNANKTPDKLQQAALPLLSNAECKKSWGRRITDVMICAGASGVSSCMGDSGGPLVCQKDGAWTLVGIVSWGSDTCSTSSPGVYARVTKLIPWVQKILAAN

[9] = molecular target: Coagulation Factor Xa, from uman plasma (Homo sapiens, UniProt P00742); experiment: Enzymatic assay, coagulation factor Xa
Sequence of Coagulation Factor Xa, from uman plasma (P00742 235-488 limits assumed): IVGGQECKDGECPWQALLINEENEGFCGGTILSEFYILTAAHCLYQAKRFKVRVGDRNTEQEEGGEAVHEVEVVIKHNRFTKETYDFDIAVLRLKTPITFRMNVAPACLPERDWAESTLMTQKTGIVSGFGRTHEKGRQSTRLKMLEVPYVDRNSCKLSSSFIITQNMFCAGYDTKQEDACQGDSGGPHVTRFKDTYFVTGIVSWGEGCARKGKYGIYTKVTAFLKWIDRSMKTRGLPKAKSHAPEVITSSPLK
Sequence of Coagulation Factor Xa, from uman plasma (P00742 41-179 limits assumed): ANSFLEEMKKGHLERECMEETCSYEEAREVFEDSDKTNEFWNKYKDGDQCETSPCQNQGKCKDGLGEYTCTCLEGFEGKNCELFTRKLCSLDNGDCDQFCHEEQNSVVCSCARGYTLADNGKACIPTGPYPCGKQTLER

SMILES	Cytotoxicity LC50/GI50 Hela cells (HELA cells (Acc57); Hela cells) [µM]	Hemolysis at 100 μM % [1] [%]	Trypsin at 100 μM % [2] [%]	Chymase at 100 μM % (Chymase, from human skin) [%]	IC50 ([3]; Elastase IC50) [µM]	Thrombin at 100 μM % [4] [%]	Tryptase at 100 μM % [5] [%]	Urokinase at 100 μM % [6] [%]	IC50 ([7]; Cathepsin G IC50) [µM]	Chymotrypsin at 100 μM % [8] [%]	FXa at 100 μM % [9] [%]	Cytotoxicity LC50/GI50 Hela cells (HELA cells (Acc57)) [µM]	Elastase at 100 μM % ([3]; at 100 μM (stated in cell instead of IC50)) [at %]	IC50 ([3]; read-out: Elastase IC50) [µM]	IC50 ([7]; read-out: Cathepsin G IC50) [µM]
CCCC[C@@H]1NC(=O)[C@@H]2CCCN2C(=O)[C@@H]2CCCN2C(=O)[C@H](CC(=O)O)NC(=O)[C@H](CO)NC(=O)[C@H](CCCCN)NC(=O)[C@H]([C@@H](C)O)NC(=O)[C@@H]2CSSC[C@H](NC1=O)C(=O)N[C@@H](Cc1ccc(O)cc1)C(=O)N1CCC[C@@H]1C(=O)N1CCC[C@H]1C(=O)N[C@@H](C1CCCCC1)C(=O)N2 [Ex. 63] (HELM PEPTIDE1{[O=C([C@@H](N[*:1])C1CCCCC1)[*:2]].C.T.K.S.D.P.P.[Nle].C.Y.[dP].P}$PEPTIDE1,PEPTIDE1,2:R3-10:R3|PEPTIDE1,PEPTIDE1,1:R1-13:R2$$$V2.0)	87	0	96	7	> 100	1	50	0	0.041	11	0	–	–	–	–
CC[C@H](C)[C@@H]1NC(=O)[C@@H]2CCCN2C(=O)[C@@H]2CCCN2C(=O)[C@H](CC(=O)O)NC(=O)[C@H](CO)NC(=O)[C@H](CCCCN)NC(=O)[C@H]([C@@H](C)O)NC(=O)[C@@H]2CSSC[C@H](NC1=O)C(=O)N[C@@H](CO)C(=O)N1CCC[C@@H]1C(=O)N[C@@H](CCC(=O)O)C(=O)N[C@@H](Cc1ccccc1)C(=O)N2 [Ex. 64] (HELM PEPTIDE1{F.C.T.K.S.D.P.P.I.C.S.[dP].E}$PEPTIDE1,PEPTIDE1,2:R3-10:R3|PEPTIDE1,PEPTIDE1,1:R1-13:R2$$$V2.0)	59	0	87	0	> 100	2.3	0	3	0.045	0	0	–	–	–	–
CC[C@H](C)[C@@H]1NC(=O)[C@H](C)NC(=O)[C@@H]2CCCN2C(=O)[C@H](CC(=O)O)NC(=O)[C@H](CO)NC(=O)[C@H](CCCCN)NC(=O)[C@H]([C@@H](C)O)NC(=O)[C@@H]2CSSC[C@H](NC1=O)C(=O)N[C@@H](CCCNC(=N)N)C(=O)N1CCC[C@@H]1C(=O)N1CCC[C@H]1C(=O)N[C@@H]([C@@H](C)CC)C(=O)N2 [Ex. 14] (HELM PEPTIDE1{I.C.T.K.S.D.P.A.I.C.R.[dP].P}$PEPTIDE1,PEPTIDE1,2:R3-10:R3|PEPTIDE1,PEPTIDE1,1:R1-13:R2$$$V2.0)	100	0	88	42.3	> 100	8.7	84.2	5.4	0.052	0	6	–	–	–	–
CC[C@H](C)[C@@H]1NC(=O)[C@@H]2CCCN2C(=O)[C@@H]2CCCN2C(=O)[C@H](CC(=O)O)NC(=O)[C@H](CO)NC(=O)[C@H](CCCCN)NC(=O)[C@H]([C@@H](C)O)NC(=O)[C@H](CCC(=O)O)NC(=O)[C@H](CCCNC(=N)N)NC(=O)[C@@H]2CCCN2C(=O)[C@H]2CCCN2C(=O)[C@H](Cc2ccccc2)NC(=O)[C@H](CCCNC(=N)N)NC1=O [Ex. 7] (HELM PEPTIDE1{R.E.T.K.S.D.P.P.I.R.F.[dP].P}$PEPTIDE1,PEPTIDE1,1:R1-13:R2$$$V2.0)	–	0.2	41	13.4	–	0	1.5	1.1	0.091	12	11.7	100	1.5	–	–
CCCC[C@@H]1NC(=O)[C@@H]2CCCN2C(=O)[C@@H]2CCCN2C(=O)[C@H](CC(=O)O)NC(=O)[C@H](CO)NC(=O)[C@H](CCCCN)NC(=O)[C@H]([C@@H](C)O)NC(=O)[C@@H]2CSSC[C@H](NC1=O)C(=O)N[C@@H](CCCNC(=N)N)C(=O)N1CCC[C@@H]1C(=O)N1CCC[C@H]1C(=O)N[C@@H]([C@@H](C)CC)C(=O)N2 [Ex. 19] (HELM PEPTIDE1{I.C.T.K.S.D.P.P.[Nle].C.R.[dP].P}$PEPTIDE1,PEPTIDE1,2:R3-10:R3|PEPTIDE1,PEPTIDE1,1:R1-13:R2$$$V2.0)	100	0	94.0	26.9	> 100	11	85.2	4	0.041	0	32	–	–	–	–
CC[C@H](C)[C@@H]1NC(=O)[C@H](C)NC(=O)[C@@H]2CCCN2C(=O)[C@H](CC(=O)O)NC(=O)[C@H](CO)NC(=O)[C@H](CCCCN)NC(=O)[C@H]([C@@H](C)O)NC(=O)[C@@H]2CSSC[C@H](NC1=O)C(=O)N[C@@H](CCCNC(=N)N)C(=O)N1CCC[C@@H]1C(=O)N1CCC[C@H]1C(=O)N[C@@H]([C@@H](C)CC)C(=O)N2 [Ex. 52] (HELM PEPTIDE1{I.C.T.K.S.D.P.A.I.C.R.[dP].P}$PEPTIDE1,PEPTIDE1,2:R3-10:R3|PEPTIDE1,PEPTIDE1,1:R1-13:R2$$$V2.0)	100	0	86	42.3	–	8.7	84.2	5.4	–	0	6	–	–	> 100	0.052
CCCC[C@@H]1NC(=O)[C@H]([C@@H](C)O)NC(=O)[C@@H]2CSSC[C@H](NC(=O)[C@H]([C@@H](C)CC)NC(=O)[C@@H]3CCCN3C(=O)[C@@H]3CCCN3C(=O)[C@H](CC(=O)O)NC(=O)[C@H](CO)NC1=O)C(=O)N[C@@H](Cc1ccc(O)cc1)C(=O)N1CCC[C@@H]1C(=O)N1CCC[C@H]1C(=O)N[C@@H](Cc1ccccc1)C(=O)N2 [Ex. 60] (HELM PEPTIDE1{F.C.T.[Nle].S.D.P.P.I.C.Y.[dP].P}$PEPTIDE1,PEPTIDE1,2:R3-10:R3|PEPTIDE1,PEPTIDE1,1:R1-13:R2$$$V2.0)	51	0	90	60	–	0	29.4	9	–	4	11	–	–	> 100	0.038
CC[C@H](C)[C@@H]1NC(=O)[C@@H]2CCCN2C(=O)[C@@H]2CCCN2C(=O)[C@H](CC(=O)O)NC(=O)[C@H](CO)NC(=O)[C@H](CCCCN)NC(=O)[C@H]([C@@H](C)O)NC(=O)[C@@H]2CSSC[C@H](NC1=O)C(=O)N[C@@H](CC(=O)O)C(=O)N1CCC[C@@H]1C(=O)N1CCC[C@H]1C(=O)N[C@@H](C1CCCCC1)C(=O)N2 [Ex. 39] (HELM PEPTIDE1{[O=C([C@@H](N[*:1])C1CCCCC1)[*:2]].C.T.K.S.D.P.P.I.C.D.[dP].P}$PEPTIDE1,PEPTIDE1,2:R3-10:R3|PEPTIDE1,PEPTIDE1,1:R1-13:R2$$$V2.0)	98	0	94	0	> 100	2	34	2	0.038	7	0	–	–	–	–
